From patent publication US11352358B2, “FXR agonist” (XUANZHU BIOPHARMACEUTICAL CO., LTD., priority 2017, dated 2022)

Columns and labels:
[1] = Liver microsome metabolism stability, human liver microsome; format: in vitro ADME; conditions: 0.5 mg protein/mL, test sample 1 μM, β-NADPH
Method: Test samples: the homemade compounds 1, 2, 4 and 5 of the present invention (for their chemical names and preparation methods, see the preparation example for each compound).
a mixed liver microsomes of SD rat and human both purchased from XenoTech, with batch Nos.: 1410271 (SD rat) and 1410013 (human) respectively, wherein the microsomal protein concentrations both were 20 mg mL^−1;
experimental promoter β-NADPH purchased from Roche (batch No.: 524F0231); and a phosphate buffer solution (pH 7.4) made in the lab.
An appropriate amount of the test sample powder was weighed accurately, and dissolved in an appropriate amount of dimethyl sulfoxide (DMSO) to a concentration of 1 mM; and the solution was then diluted by 20 times with methanol to yield a 50 μM working solution.
(1) According to the proportions in table 3 “Composition of the incubation system for liver microsome metabolism stability experiment” above, for each compound, 6 mL of PBS (100 mM), 0.6 mL of MgCl2 solution (20 mM) and 3.66 mL of H2O were made into a mixed solution 1 for the incubation system (not containing the microsomes, the test sample and β-NADPH).
(2) Liver microsomes (20 mg protein/mL) were taken from a refrigerator (−80° C.), and were placed on a thermostatic water bath oscillator (37° C.) and pre-incubated for 3 mins.
(3) For each compound, 1.88 mL of the mixed solution 1 for the incubation system was added with 55 μL of microsomes to obtain a mixed solution 2 for the incubation system (not containing the test sample and β-NADPH).
(4) Sample group (containing the microsomes and D-NADPH): 616 μL of mixed solution 2 for the incubation system was added with 14 μL of the test sample working solution (with a concentration of 50 μM), and with 70 μL of R-NADPH working solution (10 mM). The resulted solution was well mixed, and the resulted solution was then duplicated. The time points of sampling were at 0 min, 5th min, 10th min, 20th min, 30th min and 60th min.
(5) Control group (containing the microsomes, and water instead of D-NADPH): 264 μL of mixed solution 2 for the incubation system was added with 6 μL of the test sample working solution (50 μM), and with 30 μL of water. The resulted solution was well mixed, and the resulted solution was then duplicated. The time points of sampling were at 0 min and 60th min.
(6) 50 μL of sample was taken from an incubating sample tube at each predetermined time point, added to a terminating sample tube (containing 300 μL of cold terminator), and vortexed; and the reaction was terminated.
(7) after 10 mins of vortexing, the solution was centrifuged for 5 mins (12,000 rpm).
(8) 100 μL of supernatant was taken and added with 100 μL of water, and the mixture solution was thoroughly vortexed; and the solution was then analyzed by LC-MS/MS.
Percentages of residual contents were calculated according to the following formula.

BSEP mRNA in HepG2 cells = assay: Relative expression of BSEP mRNA in HepG2 cells (qPCR), Experimental Example 1; format: cell-based, human; conditions: Table 1, 24 hrs, expression under 3 μM of PX-104 as 100%
Method: compounds of the present invention (for their chemical names and preparation methods, see the preparation example of each compound); compound PX-104 and compound 30-70 (for their structures, see the background of the invention, and for their preparation methods, see patent applications WO2011020615A1 and WO2012087519A1).
Cells were digested with pancreatin and collected, and the concentration of the cells was determined; according to the counting result, the cells were resuspended to a density of 7.5×10^5 cells/mL; 2 mL of the cell suspension was inoculated in each well of a 6-well cell culture plate; and the culture plate was placed in an incubator and cultured under the conditions of 37° C. and 5% CO2 for 24 hrs.
The to-be-tested compounds were diluted to 0.3 mM and 3 mM with DMSO; and 5 μL of each stock solution diluted in the previous step was added to 5 mL of medium individually. The concentrations of the obtained working solutions were 0.3 μM and 3 μM respectively. In the control group, medium was prepared by using equivoluminal DMSO instead of the stock solutions; the cell culture plate was taken out from the incubator; the medium was removed from the cell culture plate, and the working solutions and the control medium were added correspondingly; and the culture plate was then put back into the incubator and cultured under the conditions of 37° C. and 5% CO2 for 24 hrs.
after treatment for 24 hrs, the cell culture plate was taken out, and the medium was removed from the plate; the cells were rinsed three times with pre-cooled (4° C.) PBS; and 200 μL of pancreatin (preheated to 37° C.) was added to each well, and the plate was then gently shaken such that the pancreatin could evenly cover the plate bottom. The culture plate was then placed back into the incubator and incubated until the cells were separated from the plate bottom. 1 mL of medium was added to terminate digestion. The solution was gently pipetted and blown for several times with a pipettor, all the substances in each well were pipetted into a 1.5 mL Rnase-free centrifuge tube and centrifuged at 200×g for 5 mins; supernatants were removed to collect cell samples.
Cell lysis: Fresh RNA lysis buffer was prepared (wherein 10 μL of 2-mercaptoethanol was added to 1 mL of lysis buffer); 600 μL of lysis buffer was added to each cell sample; the cells were lysed completely by 1 to 2 mins of vigorous vortexing; the cell lysates were centrifuged at 12,000×g for 5 mins; and the supernatants were transferred to 1.5 mL Rnase-free centrifuge tubes.
Extraction and purification of RNA: An equal amount of 70% ethanol was added to each cell lysate; the centrifuge tubes were then shaken vigorously, and the buffer was mixed sufficiently, so that the particulate precipitates that might be formed after the addition of ethanol were dispersed as even as possible; and adsorption columns were put into collecting tubes, and the mixtures were transferred to the adsorption columns. 700 μL was transferred at most each time; and the solutions were centrifuged at 12,000×g under room temperature for 15 secs. The solutions in the collecting tubes were discarded, and the adsorption columns were put into the collecting tubes once again; and all the remaining mixtures were then transferred into the adsorption columns. 700 μL of eluent I was added to the adsorption column; and the solutions were centrifuged at 12,000×g under room temperature for 15 secs. The adsorption columns were put into new collecting tubes; 500 μL of eluent II was added to the adsorption column; and the solutions were centrifuged at 12,000×g under room temperature for 15 secs. […]

In the case of `O=C(O)c1ccc2nc(N3C[C@@H]4C[C@H]3C[C@H]4OCc3c(-c4c(Cl)cccc4Cl)noc3C3CC3)sc2c1` [Compound 2-1, 2-((1S, 4S, 5R)-5-((5-cyclopropyl-3-(2,6-dichlorophenyl)isoxazol-4-yl)methoxy)-2-azabicyclo[2.2.1]heptan-2-yl)benzo[d]thiazole-6-carboxylic acid], the “Residual content (%) after 60 minutes of incubation” value [1] is reported as 69%, the “relative expression of BSEP mRNA in HepG2 cells” value (BSEP mRNA in HepG2 cells; 0.3 μM) is reported as 166% and the “relative expression of BSEP mRNA in HepG2 cells” value (BSEP mRNA in HepG2 cells; 3 μM) is reported as 185%.
